The record followed here is patent publication US8461328B2, “Tricyclic heterocyclic compounds, compositions and methods of use thereof” (Genentech, Inc., priority 2010, dated 2013).

What all share (format): biochemical
The target of one assay is T1, JAK2 (Homo sapiens, UniProt O60674).
T1 construct: made in house; host or cells: SF9 insect cells (baculovirus)
The assay is described as follows: JAK2 inhibition (Table 4). To be noted: read-out: JAK2 Ki.

In a further assay the target is T2, JAK3 (Homo sapiens, UniProt P52333).
T2 construct: made in house; host or cells: SF9 insect cells (baculovirus)
The assay is described as follows: JAK3 inhibition (Table 4). To be noted: read-out: JAK3 Ki.

The target of another assay is T3, TYK2 (Homo sapiens, UniProt P29597).
T3 construct: made in house; host or cells: SF9 insect cells (baculovirus)
T3 sequence (P29597 873-1187): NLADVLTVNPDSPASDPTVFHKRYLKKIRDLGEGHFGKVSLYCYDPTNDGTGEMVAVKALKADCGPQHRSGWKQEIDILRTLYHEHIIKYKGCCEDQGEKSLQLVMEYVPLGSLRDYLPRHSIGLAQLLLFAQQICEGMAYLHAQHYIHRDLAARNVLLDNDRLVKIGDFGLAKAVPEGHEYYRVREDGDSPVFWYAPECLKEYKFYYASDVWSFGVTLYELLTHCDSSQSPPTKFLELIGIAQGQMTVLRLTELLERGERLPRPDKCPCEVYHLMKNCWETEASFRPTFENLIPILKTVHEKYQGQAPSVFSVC
In words: TYK2 inhibition (Table 4).

Another assay concerns the target T4, JAK1 (Homo sapiens, UniProt P23458).
T4 construct: made in house; host or cells: SF9 insect cells (baculovirus)
The assay is described as follows: JAK1 inhibition (Table 4). To be noted: read-out: JAK1 Ki.

T1 sequence (O60674 812-1132): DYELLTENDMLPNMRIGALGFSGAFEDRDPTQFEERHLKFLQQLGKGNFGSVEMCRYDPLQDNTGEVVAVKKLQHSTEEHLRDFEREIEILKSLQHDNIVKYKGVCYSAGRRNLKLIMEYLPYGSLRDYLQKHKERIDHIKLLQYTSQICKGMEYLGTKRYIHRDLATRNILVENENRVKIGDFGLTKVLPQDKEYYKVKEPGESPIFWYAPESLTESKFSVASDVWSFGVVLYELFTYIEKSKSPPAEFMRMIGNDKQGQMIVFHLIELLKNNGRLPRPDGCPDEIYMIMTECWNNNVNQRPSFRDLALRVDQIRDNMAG
T2 sequence (P52333 783-1124): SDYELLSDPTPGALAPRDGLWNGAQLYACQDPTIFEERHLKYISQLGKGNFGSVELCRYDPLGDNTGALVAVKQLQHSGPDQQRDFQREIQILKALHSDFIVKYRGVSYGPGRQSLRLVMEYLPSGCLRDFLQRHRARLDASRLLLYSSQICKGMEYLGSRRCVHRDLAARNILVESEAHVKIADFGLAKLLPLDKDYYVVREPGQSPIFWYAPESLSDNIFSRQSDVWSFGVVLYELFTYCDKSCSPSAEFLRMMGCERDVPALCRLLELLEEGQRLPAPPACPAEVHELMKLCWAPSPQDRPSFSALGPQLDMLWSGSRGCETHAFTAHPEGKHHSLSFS
T4 sequence (P23458 852-1154): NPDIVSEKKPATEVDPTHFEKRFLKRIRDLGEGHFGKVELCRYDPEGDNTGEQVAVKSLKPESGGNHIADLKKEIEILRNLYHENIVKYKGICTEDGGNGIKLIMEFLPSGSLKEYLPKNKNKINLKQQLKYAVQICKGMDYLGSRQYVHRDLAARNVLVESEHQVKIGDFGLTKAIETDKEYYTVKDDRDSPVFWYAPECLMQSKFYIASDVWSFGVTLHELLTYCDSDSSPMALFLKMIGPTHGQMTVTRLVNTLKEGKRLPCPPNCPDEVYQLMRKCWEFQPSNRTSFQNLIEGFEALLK

With `FC(F)(F)c1nc(CN2CCC(n3cnc4cnc5[nH]ccc5c43)CC2)cs1` [Example 295, 1-[1-(2-Trifluoromethyl-thiazol-4-ylmethyl)-piperidin-4-yl]-1,6-dihydro-1,3,5,6-tetraaza-as-indacene], the inhibition constant (Ki) at JAK2 was determined as 2.04 nM; at JAK3, 9.86 nM; on TYK2, 28.4 nM; at JAK1 it was 1.05 nM.

On to `O=C(CC(F)(F)F)N1CCC[C@@H](n2cnc3cnc4[nH]ccc4c32)C1` [Example 296], for which the Ki at JAK2 is 4.75 nM; at JAK3 it was 19.5 nM; at TYK2, 16.2 nM; on JAK1, 3.3 nM.

As to `CC(C)(C#N)C(=O)N1CCC[C@@H](n2cnc3cnc4[nH]ccc4c32)C1` [Example 297, 2,2-Dimethyl-3-oxo-3-[(R)-3-(6H-1,3,5,6-tetraaza-as-indacen-1-yl)-piperidin-1-yl]-propionitrile], the Ki at JAK2 came to 5.28 nM; at JAK3, 21 nM; at TYK2 it was 31.5 nM; on JAK1 it was 3.91 nM.

Consider `c1cc2c(ncc3nc(C4CC4)n(C4CCNCC4)c32)[nH]1` [Example 298, 2-Cyclopropyl-1-piperidin-4-yl-1,6-dihydro-1,3,5,6-tetraaza-as-indacene], for which the Ki on JAK2 came to 367 nM; at JAK3, 231 nM; at TYK2, 1290 nM; at JAK1, 27.8 nM.

With `FC(F)c1nc2cnc3[nH]ccc3c2n1C1CCN(Cc2ccccc2)CC1` [Example 299, 1-(1-Benzyl-piperidin-4-yl)-2-difluoromethyl-1,6-dihydro-1,3,5,6-tetraaza-as-indacene], the Ki on JAK2 turned out to be 4.53 nM; at JAK3, 4.53 nM; on TYK2 it was 127 nM; at JAK1, 2.5 nM.

As for `FC(F)(F)c1nc2cnc3[nH]ccc3c2n1[C@@H]1CCCNC1` [Example 301, 1-(R)-Piperidin-3-yl-2-trifluoromethyl-1,6-dihydro-1,3,5,6-tetraaza-as-indacene], the Ki was determined as 1300 nM on JAK2, 1450 nM at JAK3, 2160 nM on TYK2 and 373 nM on JAK1.

Regarding `N#CCC(=O)N1CCC[C@@H](n2c(C(F)(F)F)nc3cnc4[nH]ccc4c32)C1` [Example 302, 3-Oxo-3-[(R)-3-(2-trifluoromethyl-6H-1,3,5,6-tetraaza-as-indacen-1-yl)-piperidin-1-yl]-propionitrile], the inhibition constant (Ki) at JAK2 came out at 13.7 nM; on JAK3 it was 66.4 nM; at TYK2, 71.7 nM; at JAK1, 9.45 nM.

In the case of `Fc1cncc(CN2CCC(n3cnc4cnc5[nH]ccc5c43)CC2)c1` [Example 303, 1-[1-(5-Fluoro-pyridin-3-ylmethyl)-piperidin-4-yl]-1,6-dihydro-1,3,5,6-tetraaza-as-indacene], the inhibition constant (Ki) was found to be 3.53 nM at JAK2, 14.6 nM at JAK3, 61.2 nM at TYK2 and 2.07 nM on JAK1.

Consider `N#Cc1cccc(CN2CCC(n3cnc4cnc5[nH]ccc5c43)CC2)n1` [Example 304, 6-[4-(6H-1,3,5,6-Tetraaza-as-indacen-1-yl)-piperidin-1-ylmethyl]-pyridine-2-carbonitrile], for which the inhibition constant Ki at JAK2 amounted to 3.55 nM; on JAK3, 20.4 nM; at TYK2, 52.4 nM; on JAK1, 3.32 nM.

On to `FC(F)c1nc2cnc3[nH]ccc3c2n1C1CCNCC1` [Example 307, 2-Difluoromethyl-1-piperidin-4-yl-1,6-dihydro-1,3,5,6-tetraaza-as-indacene], for which the inhibitory constant (Ki) at JAK2 was found to be 228 nM; at JAK3 it was 202 nM; at TYK2 it was 373 nM; on JAK1, 18.2 nM.

For the compound `N#CCCN1CCC(n2c(C(F)F)nc3cnc4[nH]ccc4c32)CC1` [Example 308, 3-[4-(2-Difluoromethyl-6H-1,3,5,6-tetraaza-as-indacen-1-yl)-piperidin-1-yl]-propionitrile], the inhibitory constant (Ki) came to 2.63 nM on JAK2, 6.04 nM on JAK3, 12.3 nM on TYK2 and 1.5 nM at JAK1.

As for `N#Cc1cccc(CN2CCC(n3c(CC(=O)N4CCC(F)(F)CC4)nc4cnc5[nH]ccc5c43)CC2)n1` [Example 309], the inhibitory constant (Ki) at JAK2 amounted to 295 nM; at JAK3, 93.4 nM; at TYK2, 1940 nM; on JAK1, 52 nM.

In the case of `CC(C)OC(=O)N[C@H]1CC[C@H](n2cnc3cnc4[nH]ccc4c32)CC1` [Example 310, [(R)-4-(6H-1,3,5,6-Tetraaza-as-indacen-1-yl)-cyclohexyl]-carbamic acid isopropyl ester], the Ki amounted to 26.3 nM on JAK2, 213 nM at JAK3, 197 nM on TYK2 and 9.01 nM at JAK1.

Take `N#Cc1cc(CN2CCC(n3cnc4cnc5[nH]ccc5c43)CC2)ccn1` [Example 313, 4-[4-(6H-1,3,5,6-Tetraaza-as-indacen-1-yl)-piperidin-1-ylmethyl]-pyridine-2-carbonitrile]: the inhibitory constant (Ki) at JAK2 worked out at 3.67 nM; on JAK3, 59.6 nM; on TYK2 it was 78.6 nM; at JAK1, 1.38 nM.

In the case of `FC(F)(F)c1cccc(CN2CCC(n3cnc4cnc5[nH]ccc5c43)CC2)n1` [Example 314, 1-[1-(6Trifluoromethyl-pyridin-2-ylmethyl)-piperidin-4-yl]-1,6-dihydro-1,3,5,6-tetraaza-as-indacene], the Ki came to 7.44 nM at JAK2, 36.2 nM on JAK3, 124 nM at TYK2 and 4.46 nM on JAK1.

For `O=C(C1CCC1)N1CCC[C@@H](n2cnc3cnc4[nH]ccc4c32)C1` [Example 315, Cyclobutyl-[(R)-3-(6H-1,3,5,6-tetraaza-as-indacen-1-yl)-piperidin1-yl]-methanone], the Ki on JAK2 is 6.28 nM; on JAK3, 41.3 nM; on TYK2 it was 29.2 nM; on JAK1 it was 5.7 nM.

Consider `N#CC1(C(=O)N2CCC[C@@H](n3cnc4cnc5[nH]ccc5c43)C2)CCC1` [Example 316, 1-[(R)-3-(6H-1,3,5,6-Tetraaza-as-indacen-1-yl)-piperidine-carbonyl]-cyclobutanecarbonitrile], for which the inhibition constant (Ki) was determined as 3.2 nM at JAK2, 9.24 nM on JAK3, 17.7 nM on TYK2 and 2.77 nM on JAK1.

For `CC(C)(C)OC(=O)NC1CC(n2cnc3cnc4[nH]ccc4c32)C1` (centres unmarked) [Example 317, [3-(6H-1,3,5,6-Tetraaza-as-indacen-1-yl)-cyclobutyl]-carbamic acid tert-butyl ester], the Ki at JAK2 came to 5.78 nM; at JAK3, 37.4 nM; on TYK2, 94.6 nM; on JAK1, 2.9 nM.

Regarding `NC1CC(n2cnc3cnc4[nH]ccc4c32)C1` (centres unmarked) [Example 320, 3-(6H-1,3,5,6-Tetraaza-as-indacen-1-yl)-cyclobutylamine], the Ki on JAK2 came to 181 nM; at JAK3, 1160 nM; on TYK2, 608 nM; on JAK1 it was 56 nM.

For `c1ccc(CN2CCC(n3c(C4CCC4)nc4cnc5[nH]ccc5c43)CC2)cc1` [Example 325, 1-(1-Benzyl-piperidin-4-yl)-2-cyclobutyl-1,6-dihydro-1,3,5,6-tetraaza-as-indacene], the Ki at JAK2 came to 21.6 nM; at JAK3, 19.5 nM; on TYK2, 1360 nM; on JAK1, 5.3 nM.

As for `c1cc2c(ncc3nc(C4CCC4)n(C4CCNCC4)c32)[nH]1` [Example 326, 2-Cyclobutyl-1-piperidin-4-yl-1,6-dihydro-1,3,5,6-tetraaza-as-indacene], the inhibition constant (Ki) at JAK2 is 938 nM; at JAK3, 552 nM; on TYK2 it was 2630 nM; on JAK1, 27.6 nM.

On to `N#CCCN1CCC(n2c(C3CCC3)nc3cnc4[nH]ccc4c32)CC1` [Example 327, 3-[4-(2-Cyclobutyl-6H-1,3,5,6-tetraaza-as-indacen-1-yl)-piperidin-1-yl]-propionitrile], for which the Ki at JAK2 amounted to 16.9 nM; on JAK3, 20 nM; at TYK2 it was 138 nM; on JAK1, 4.84 nM.

`N#Cc1cccc(CNC2CC(n3cnc4cnc5[nH]ccc5c43)C2)c1` (centres unmarked) [Example 329, 3-{[3-(6H-1,3,5,6-Tetraaza-as-indacen-1-yl)-cyclobutylamino]-methyl}-benzonitrile]: the Ki was determined as 41.6 nM at JAK2, 173 nM at JAK3, 230 nM at TYK2 and 16.5 nM at JAK1.

For `N#CCCNC1CC(n2cnc3cnc4[nH]ccc4c32)C1` (centres unmarked) [Example 331, 3-[3-(6H-1,3,5,6-Tetraaza-as-indacen-1-yl)-cyclobutylamino]-propionitrile], the Ki is 16 nM at JAK2, 64.4 nM at JAK3, 45.8 nM on TYK2 and 6.08 nM at JAK1.

`c1ncc(CN[C@H]2CC[C@@H](n3cnc4cnc5[nH]ccc5c43)CC2)cn1` [Example 333, Pyrimidin-5-ylmethyl-[4-(6H-1,3,5,6-tetraaza-as-indacen-1-yl)-cyclohexyl]-amine]: the inhibitory constant (Ki) is 25.3 nM at JAK2, 170 nM at JAK3, 59.1 nM on TYK2 and 11.7 nM on JAK1.

For `CC(C)(O)c1nc2cnc3[nH]ccc3c2n1C1CCN(CCC#N)CC1` [Example 335, 3-{4-[2-(1-Hydroxy-1-methyl-ethyl)-6H-1,3,5,6-tetraaza-as-indacen-1-yl]-piperidin-1-yl}-propionitrile], the Ki at JAK2 worked out at 127 nM; on JAK3 it was 67.6 nM; on TYK2 it was 944 nM; on JAK1 it was 31.2 nM.
